Counter-ions that a name gives are not always drawn.
Legend:
[1] = system: IL-1β, human peripheral blood mononuclear cells (PBMC); experiment: PBMC cell assay: IL-1β assay with human PBMC or enriched adherent mononuclear cells, LPS-stimulated; assay type: cell-based
Description: IL-1β Assay with a Mixed Population of Human Peripheral Blood Mononuclear Cells (PBMC) or Enriched Adherent Mononuclear Cells
Processing of pre-IL-1β by ICE can be measured in cell culture using a variety of cell sources. Human PBMC obtained from healthy donors provides a mixed population of lymphocyte subtypes and mononuclear cells that produce a spectrum of interleukins and cytokines in response to many classes of physiological stimulators. Adherent mononuclear cells from PBMC provides an enriched source of normal monocytes for selective studies of cytokine production by activated cells.
An initial dilution series of test compound in DMSO or ethanol is prepared, with a subsequent dilution into RPMI-10% FBS media (containing 2 mM L-glutamine, 10 mM HEPES, 50 U and 50 ug/ml pen/strep) respectively to yield drugs at 4× the final test concentration containing 0.4% DMSO or 0.4% ethanol. The final concentration of DMSO is 0.1% for all drug dilutions. A concentration titration which brackets the apparent Ki for a test compound determined in an ICE inhibition assay is generally used for the primary compound screen.
Generally 5-6 compound dilutions are tested and the cellular component of the assay is performed in duplicate, with duplicate ELISA determinations on each cell culture supernatant.
PBMC Isolation and IL-1 Assay:
Buffy coat cells isolated from one pint human blood (yielding 40-45 ml final volume plasma plus cells) are diluted with media to 80 ml and LeukoPREP separation tubes (Becton Dickinson) are each overlaid with 10 ml of cell suspension. After 15 min centrifugation at 1500-1800×g, the plasma/media layer is aspirated and then the mononuclear cell layer is collected with a Pasteur pipette and transferred to a 15 ml conical centrifuge tube (Corning). Media is added to bring the volume to 15 ml, gently mix the cells by inversion and centrifuge at 300×g for 15 min. Resuspend the PBMC pellet in a small volume of media, count cells and adjust to 6×10^6 cells/ml.
For the cellular assay, 1.0 ml of the cell suspension is added to each well of a 24-well flat bottom tissue culture plate (Corning), 0.5 ml test compound dilution and 0.5 ml LPS solution (Sigma #L-3012; 20 ng/ml solution prepared in complete RPMI media; final LPS concentration 5 ng/ml). The 0.5 ml additions of test compound and LPS are usually sufficient to mix the contents of the wells. Three control mixtures are run per experiment, with either LPS alone, solvent vehicle control, and/or additional media to adjust the final culture volume to 2.0 ml. The cell cultures are incubated for 16-18 hr at 37° C. in the presence of 5% CO2.
At the end of the incubation period, cells are harvested and transferred to 15 ml conical centrifuge tubes. After centrifugation for 10 min at 200×g, supernatants are harvested and transferred to 1.5 ml Eppendorf tubes. It may be noted that the cell pellet may be utilized for a biochemical evaluation of pre-IL-1β and/or mature IL-1β content in cytosol extracts by western blotting or ELISA with pre-IL-1β specific antisera.
Isolation of Adherent Mononuclear Cells:
PBMC are isolated and prepared as described above. Media (1.0 ml) is first added to wells followed by 0.5 ml of the PBMC suspension. After a one hour incubation, plates are gently shaken and nonadherent cells aspirated from each well. Wells are then gently washed three times with 1.0 ml of media and final resuspended in 1.0 ml media. The enrichment for adherent cells generally yields 2.5−3.0×10^5 cells per well. The addition of test compounds, LPS, cell incubation conditions and processing of supernatants proceeds as described above.
We have used Quantikine kits (R&D Systems) for measurement of mature IL-1β. Assays are performed according to the manufacturer's directions. Mature IL-1β levels of about 1-3 ng/ml in both PBMC and adherent mononuclear cell positive controls are observed. […]

ICE = molecular target: T1, ICE (Homo sapiens, UniProt P29466); experiment: Enzyme assay with UV-visible substrate (visible ICE assay, Succinyl-Tyr-Val-Ala-Asp-pNitroanilide); assay type: biochemical
T1 sequence (P29466 120-297 limits assumed): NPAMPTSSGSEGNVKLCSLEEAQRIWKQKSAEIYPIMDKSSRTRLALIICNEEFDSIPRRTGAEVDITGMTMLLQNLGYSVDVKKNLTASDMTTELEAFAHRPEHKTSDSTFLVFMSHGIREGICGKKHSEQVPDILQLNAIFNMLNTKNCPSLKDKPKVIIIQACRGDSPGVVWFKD
T1 sequence (P29466 317-404 limits assumed): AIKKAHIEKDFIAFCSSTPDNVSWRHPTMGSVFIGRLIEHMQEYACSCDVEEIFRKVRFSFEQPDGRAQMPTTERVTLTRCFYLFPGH
Outline: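 Human ICE was preincubated with inhibitor in DMSO and buffer for 15 min at room temperature, then succinyl-Tyr-Val-Ala-Asp-pNA was added. pNA release was followed at 405-603 nm for 20 min at 37° C. Ki and inhibition mode came from fitting rates to standard kinetic equations.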

[2] = Homo sapiens, PBMC, * = values obtained upon reassay
[3] = * = values obtained upon reassay

SMILES: O=C[C@H](CC(=O)O)NC(=O)[C@@H]1CCCN2C(=O)CC[C@H](NC(=O)c3ccc(OC(=O)c4ccccc4)cc3)C(=O)N12 [Compound 491]
- IC50 [1, 2]: 2500 nM
- Ki (ICE; Table 5): 5 nM

SMILES: CNCC(=O)N1C[C@H](NC(=O)c2cccc3ccccc23)C(=O)N(CC(=O)N[C@H](C=O)CC(=O)O)c2ccccc21 [Compound 650, (3S)-3-[(3S)-2-Oxo-3-(1-naphthoyl)amino-5-(2-methylamino)acetyl-2,3,4,5-tetrahydro-1H-1,5-benzodiazepine-1-acetylamino]-4-oxo-butyric acid]
- IC50 ([1]; Homo sapiens, PBMC, Table 17): 4000 nM
- Ki (ICE; Table 17): 550 nM

SMILES: O=C[C@H](CC(=O)O)NC(=O)[C@@H]1CCCN2C(=O)CC[C@H](NC(=O)c3cccnc3)C(=O)N12 [Compound 454]
- IC50 [1, 2]: 2500 nM
- Ki (ICE; Table 5): 45 nM

SMILES: COC(=O)N[C@H]1CCC(=O)N2CCC[C@@H](C(=O)N[C@H](C=O)CC(=O)O)N2C1=O [Compound 419]
- IC50 [1, 2]: > 8000 nM
- Ki (ICE; Table 5): 280 nM

SMILES: COC(=O)Nc1ccc(C(=O)N[C@H]2CCC(=O)N3CCC[C@@H](C(=O)N[C@H](C=O)CC(=O)O)N3C2=O)cc1 [Compound 490]
- IC50 [1, 2]: 1000 nM
- Ki (ICE; Table 5): 4.3 nM

SMILES: CCS(=O)(=O)N[C@H]1CCC(=O)N2CCC[C@@H](C(=O)N[C@H](C=O)CC(=O)O)N2C1=O [Compound 421]
- IC50 [1, 3]: 4600 nM
- IC50 [1, 2]: 4300 nM
- Ki (ICE; Table 5): 200 nM

SMILES: COc1cccc(C(=O)N[C@H]2CCC(=O)N3CCC[C@@H](C(=O)N[C@H](C=O)CC(=O)O)N3C2=O)c1 [Compound 451]
- IC50 [1, 2]: 1800 nM
- Ki (ICE; Table 5): 4 nM

SMILES: O=C[C@H](CC(=O)O)NC(=O)[C@@H]1CCCN2C(=O)CC[C@H](NC(=O)c3ccc(F)cc3)C(=O)N12 [Compound 463]
- IC50 [1, 3]: 2800 nM
- IC50 [1, 2]: 2400 nM
- Ki (ICE; Table 5): 14 nM

SMILES: CC(=O)C(=O)N1C[C@H](NC(=O)c2ccccc2)C(=O)N(CC(=O)N[C@H](C=O)CC(=O)O)c2ccccc21 [Compound 605i, (3S)-3-[(3S)-2-Oxo-3-benzoylamino-5-acetylcarbonyl-2,3,4,5-tetrahydro-1H-1,5-benzodiazepin-1-acetylamino]-4-oxo-butyric acid]
- IC50 [1, 2]: > 20000 nM
- Ki (ICE; Table 5): 680 nM

SMILES: O=C[C@H](CC(=O)O)NC(=O)CN1C(=O)[C@@H](NC(=O)c2ccccc2)CN(C(=O)Cc2ccncc2)c2ccccc21 [Compound 605s, (3S)-3-[(3S)-2-Oxo-3-benzoylamino-5-(4-pyridylacetyl)-2,3,4,5-tetrahydro-1H-1,5-benzodiazepin-1-acetylamino]-4-oxo-butyric acid]
- IC50 [1, 2]: 6000 nM
- Ki (ICE; Table 5): 150 nM

SMILES: O=CC(CC(=O)O)NC(=O)CN1C(=O)[C@@H](NCc2ccccc2)CN(C(=O)CCc2ccccc2)c2ccccc21 (stereo partly drawn) [Compound 605v, (3S)3-[(3S)2-Oxo-3-benzylamino-5-(3-phenylpropionyl)-2,3,4,5-tetrahydro-1H-1,5-benzodiazepin-1-acetylamino]-4-oxo-butyric acid trifluoroacetic acid salt]
- IC50 [1, 2]: > 30000 nM
- Ki (ICE; Table 5): 1100 nM

SMILES: O=C[C@H](CC(=O)O)NC(=O)[C@@H]1CCCN2C(=O)CC[C@H](NC(=O)c3ccc4ccccc4c3O)C(=O)N12 [Compound 449]
- IC50 [1, 2]: 1500 nM
- Ki (ICE; Table 5): 12 nM

SMILES: O=C[C@H](CC(=O)O)NC(=O)[C@@H]1CCCN2C(=O)CC[C@H](NC(=O)c3cc4ccccc4o3)C(=O)N12 [Compound 467]
- IC50 [1, 2]: 1900 nM
- Ki (ICE; Table 5): 11 nM

SMILES: O=C[C@H](CC(=O)O)NC(=O)[C@@H]1CCCN2C(=O)CC[C@H](NC(=O)c3ccc(Cl)c(Cl)c3)C(=O)N12 [Compound 464]
- IC50 [1, 2]: 1000 nM
- Ki (ICE; Table 5): 2.5 nM

SMILES: O=C[C@H](CC(=O)O)NC(=O)[C@@H]1CCCN2C(=O)CC[C@H](NC(=O)C3CC3)C(=O)N12 [Compound 413]
- IC50 [1, 2]: 6200 nM
- Ki (ICE; Table 5): 750 nM

SMILES: C[C@H]1CC(=O)N2CCC[C@@H](C(=O)N[C@H](C=O)CC(=O)O)N2C(=O)[C@H]1NC(=O)c1ccccc1 [Compound 257, [3S(1S,8S,9S)]3-(9-benzoylamino-6,10-dioxo-8-methyl-1,2,3,4,7,8,9,10-octahydro-6H-pyridazino-[1,2-a][1,2]diazepine-1-carboxamido)-4-oxobutanoic acid]
- IC50 [1, 3]: 6600 nM
- IC50 [1, 2]: 11000 nM
- Ki (ICE; Table 5): 13 nM

SMILES: O=C[C@H](CC(=O)O)NC(=O)[C@@H]1CCCN2C(=O)CC[C@H](NC(=O)c3cnc4ccccc4c3)C(=O)N12 [Compound 436]
- IC50 [1, 2]: 2700 nM
- Ki (ICE; Table 5): 7.5 nM

SMILES: CC(C)CC(=O)N1C[C@H](NC(=O)c2ccccc2)C(=O)N(CC(=O)N[C@H](C=O)CC(=O)O)c2ccccc21 [Compound 605f, (3S)-3-[(3S)-2-Oxo-3-benzoylamino-5-(3-methylbutyryl)-2,3,4,5-tetrahydro-1H-1,5-benzodiazepin-1-acetylamino]-4-oxo-butyric acid]
- IC50 [1, 2]: 12500 nM
- Ki (ICE; Table 5): 475 nM

SMILES: CS(=O)(=O)N1C[C@H](NC(=O)c2ccccc2)C(=O)N(CC(=O)N[C@H](C=O)CC(=O)O)c2ccccc21 [Compound 605m, (3S)-3-[(3S)-2-Oxo-3-benzoylamino-5-methanesulfonyl-2,3,4,5-tetrahydro-1H-1,5-benzodiazepin-1-acetylamino]-4-oxo-butyric acid]
- IC50 [1, 2]: 20000 nM
- Ki (ICE; Table 5): 650 nM

From patent US20120165319A1, “INHIBITORS OF INTERLEUKIN-1 BETA CONVERTING ENZYME” (VERTEX PHARMACEUTICALS INCORPORATED, priority 1995, published 2012)
